Assay results: US12456194B2, “Methods for identifying and using cell behavior in drug screening and diagnosis” (Indiana University Research and Technology Corporation, priority 2020, dated 2025)

Key:
[1] = test system: B16F10 melanoma cell line; test: 3D tumor culture T cell infiltration drug screen scored by neural network, B16F10; details: B16F10 melanoma cell line-based screen; library of 141 small molecule epigenetic modulators; averaging the scores of a total of 10 images; FIG. 6
Description: (§1) Once the predicted Rd is determined, the predicted Rd for each patient can be classified as depicted in Step 215 of FIG. 2. For example, Rd can be defined as high, medium, and low-survival groups by binning the Rd's by or into risk classifications or categories, such as low survival, medium survival and high survival. Low survival may mean the Rd>75% of TCGA SKCM patient dataset; medium survival may mean Rd=25%-75% of TCGA SKCM patient dataset; and high survival may mean Rd<25% of TCGA SKCM patient dataset. Each risk classification or category may be associated with a predetermined values, such as 0 for low survival (high risk), 1 for medium survival (medium risk), and 2 for high survival (low risk).
(§2) The trained neural network as described in FIG. 1 and FIG. 4 is transferred to 3D tumor culture dataset 305, a drug screening method and/or a companion diagnostic method 300 may be performing using the algorithms discussed above with respect to FIGS. 1, 2 and 4 to objectively quantify and predict/score the effectiveness of a drug or a treatment based on a particular type of TIL behavior within 3D tumor cultures or patent tumor tissue samples. For example, a library of 141 small molecule epigenetic modulators in 2 cancer cell lines (e.g., B16F10 melanoma and UN-KC6141 pancreatic cancer) were screened. […]

[2] = test system: UN-KC6141 pancreatic cancer cell line; test: 3D tumor culture T cell infiltration drug screen scored by neural network, UN-KC6141; details: UN-KC6141 pancreatic cancer cell line-based screen; library of 141 small molecule epigenetic modulators; averaging the scores of a total of 10 images; FIG. 6
Description: as §1, §2

Structure (SMILES): c1ccc([C@@H]2C[C@H]2NC2CCNCC2)cc1 [GSK-LSD1]
- final score (T cell infiltration enhancement activity) [1]: highest score
- final score (T cell infiltration enhancement activity) [2]: highest score
